Laboratory results published in DBAASP.
≈ marks a conversion by molar mass, not a printed value. Each block holds one compound with its values, some of them ahead of it.

Legend:
Assay in all cases: ≥ marks a high value that may be exact or a test limit, other limits are often not marked, values filed in µg/mL are converted to µM
[1] = tested on: Proteus mirabilis ATCC 25933
[2] = tested on: Pseudomonas aeruginosa ATCC 27853
[3] = tested on: Enterococcus faecalis ATCC 29212
[4] = tested on: Escherichia coli ATCC 25922
[5] = tested on: Staphylococcus aureus NCTC 8325
[6] = tested on: Klebsiella pneumoniae KK3 9904
[7] = tested on: Enterobacter cloacae HNTCC 53001
[8] = tested on: Candida albicans ATCC 90028
[9] = tested on: Staphylococcus epidermidis RP62A
Bacillus subtilis = tested on: Bacillus subtilis
Salmonella typhimurium = tested on: Salmonella typhimurium
Proteus vulgaris = tested on: Proteus vulgaris
[10] = tested on: Staphylococcus epidermidis
Escherichia coli = tested on: Escherichia coli
Streptococcus pyogenes = tested on: Streptococcus pyogenes
Pseudomonas aeruginosa = tested on: Pseudomonas aeruginosa
Aspergillus fumigatus = tested on: Aspergillus fumigatus
Candida albicans = tested on: Candida albicans
[11] = tested on: Candida albicans ATCC 10231
[12] = tested on: Staphylococcus aureus ATCC 12600
[13] = tested on: Escherichia coli ATCC 11775
Botrytis cinerea = tested on: Botrytis cinerea
[14] = tested on: Erwinia amylovora PMV 6076
[15] = tested on: Pseudomonas syringae pv. syringae EPS 94
[16] = tested on: Xanthomonas campestris pv. Vesicatoria 2133-2
[17] = tested on: Klebsiella pneumoniae ATCC 700603
[18] = tested on: Enterobacter cloacae ATCC 13047
[19] = tested on: Streptococcus gordonii ATCC 10558
[20] = tested on: Streptococcus mutans GS-5
[21] = tested on: Streptococcus sanguinis ATCC 49295
[22] = tested on: Escherichia coli ATCC 2592
[23] = tested on: Candida albicans ATCC 36232
[24] = tested on: Micrococcus luteus ATCC 9341
[25] = tested on: Pseudomonas aeruginosa ATCC 9027

- MIC [1]: ≥ 80 µM
- MIC [2]: 10 µM (≈ 27 µg/mL)
- MIC [3]: > 80 µM
- MIC [4]: 5 µM (≈ 13.5 µg/mL)
- MIC [5]: ≥ 40 µM
- MIC [6]: 5 µM (≈ 13.5 µg/mL)
- MIC [7]: 10 µM (≈ 27 µg/mL)
- MIC [8]: ≥ 80 µM
- MIC [9]: 20 µM (≈ 54 µg/mL)
SMILES: CC[C@H](C)[C@H](NC(=O)CNC(=O)[C@H](CCC(N)=O)NC(=O)[C@H](Cc1ccccc1)NC(=O)[C@@H](NC(=O)[C@H](CCCCN)NC(=O)[C@H](CCCCN)NC(=O)[C@H](CC(C)C)NC(=O)[C@H](C)NC(=O)[C@H](CCCCN)NC(=O)[C@H](CC(C)C)NC(=O)CN)C(C)C)C(=O)N[C@@H](Cc1cnc[nH]1)C(=O)N[C@@H](CCCCN)C(=O)N[C@@H](C)C(=O)N[C@H](C(=O)N[C@@H](CCCCN)C(=O)N[C@@H](CC(C)C)C(=O)N[C@H](C(=O)N[C@@H](CC(N)=O)C(=O)N[C@@H](CC(N)=O)C(=O)N[C@@H](Cc1cnc[nH]1)C(=O)N[C@H](C(=O)N[C@@H](CCC(N)=O)C(=O)O)C(C)C)[C@@H](C)CC)[C@@H](C)CC [GLKALKKVFQGIHKAIKLINNHVQ]

- MIC (Bacillus subtilis): ≥ 64 µM
- MIC (Salmonella typhimurium): 0.5 µM (≈ 1.17 µg/mL)
- MIC (Proteus vulgaris): 2 µM (≈ 4.67 µg/mL)
- MIC [10]: ≥ 64 µM
- MIC (Escherichia coli): 0.5 µM (≈ 1.17 µg/mL)
- MIC (Streptococcus pyogenes): ≥ 64 µM
- MIC (Pseudomonas aeruginosa): 16 µM (≈ 37.3 µg/mL)
SMILES: CC(C)C[C@H](NC(=O)[C@H](CCCN=C(N)N)NC(=O)[C@@H]1CCCN1C(=O)[C@H](Cc1cnc[nH]1)NC(=O)[C@@H]1CCCN1C(=O)[C@@H]1CCCN1C(=O)[C@H](CCCN=C(N)N)NC(=O)[C@@H]1CCCN1C(=O)[C@@H]1CCCN1C(=O)[C@H](Cc1cnc[nH]1)NC(=O)[C@@H]1CCCN1C(=O)[C@@H]1CCCN1C(=O)[C@H](CCCN=C(N)N)NC(=O)[C@@H]1CCCN1C(=O)[C@@H]1CCCN1C(=O)[C@H](Cc1cnc[nH]1)NC(=O)[C@@H]1CCCN1C(=O)[C@@H]1CCCN1C(=O)[C@H](CCCN=C(N)N)NC(=O)[C@@H]1CCCN1)C(=O)O [PRPPHPPRPPHPPRPPHPRL]

- MIC (Aspergillus fumigatus): ≥ 335 µM
- MIC (Candida albicans): > 671 µM
SMILES: CC(C)C[C@H](NC(=O)[C@H](Cc1ccccc1)NC(=O)[C@@H]1CCCN1C(=O)[C@H](Cc1c[nH]c2ccccc12)NC(=O)[C@H](Cc1c[nH]c2ccccc12)NC(=O)[C@H](Cc1c[nH]c2ccccc12)NC(=O)[C@@H]1CCCN1C(=O)[C@H](Cc1ccccc1)NC(=O)[C@@H](N)CCCN=C(N)N)C(=O)N[C@@H](CCCN=C(N)N)C(=O)O [RFPWWWPFLR]

- MIC [11]: > 200 µM
- MIC [12]: ≥ 200 µM
- MIC [13]: ≥ 200 µM
- MIC (Botrytis cinerea): ≥ 200 µM
SMILES: CC[C@H](C)[C@H](N)C(=O)N[C@@H](CC(N)=O)C(=O)N1CCC[C@H]1C(=O)N[C@@H](CCCCN)C(=O)N[C@@H](CO)C(=O)N[C@H](C(=O)N[C@@H](CCC(N)=O)C(=O)N[C@@H](CO)C(=O)N[C@@H](CC(C)C)C(=O)N[C@@H](CC(C)C)C(N)=O)C(C)C [INPKSVQSLL]

- MIC [14]: 14.1 µM (≈ 46.8 µg/mL)
- MIC [15]: 14.1 µM (≈ 46.8 µg/mL)
- MIC [16]: 14.1 µM (≈ 46.8 µg/mL)
SMILES: CC[C@H](C)[C@H](NC(=O)[C@H](CCCCN)NC(=O)[C@H](CCCCN)NC(=O)[C@H](Cc1ccccc1)NC(=O)[C@H](CC(C)C)NC(=O)[C@H](CCCCN)NC(=O)[C@H](CCCCN)NC(=O)[C@H](CC(C)C)NC(=O)[C@H](Cc1ccc(O)cc1)NC(=O)[C@H](CCCCN)NC(=O)[C@H](CC(C)C)NC(=O)[C@@H](NC(=O)[C@H](CCCCN)NC(=O)[C@H](CCCCN)NC(=O)[C@H](Cc1ccccc1)NC(=O)[C@H](CC(C)C)NC(=O)[C@H](CCCCN)NC(=O)[C@@H](N)CCCCN)[C@@H](C)CC)C(=O)N[C@@H](CC(C)C)C(=O)N[C@@H](CCCCN)C(=O)N[C@@H](Cc1ccc(O)cc1)C(=O)N[C@@H](CC(C)C)C(=O)N[C@@H](CCCCN)C(=O)N[C@@H](CC(=O)O)C(=O)N[C@@H](CCC(=O)O)C(=O)N[C@@H](CC(C)C)C(=O)O [KKLFKKILKYLKKLFKKILKYLKDEL]

- MIC [17]: 55.6 µM (≈ 80 µg/mL)
- MIC [18]: ≥ 55.6 µM
- MIC [8]: 27.8 µM (≈ 40 µg/mL)
SMILES: CC[C@H](C)[C@H](NC(=O)[C@H](C)NC(=O)[C@H](CCCCN)NC(=O)[C@@H](NC(=O)[C@@H](NC(=O)[C@@H](N)C(C)C)[C@@H](C)CC)C(C)C)C(=O)N[C@@H](C)C(=O)N[C@H](C(=O)N[C@@H](CC(C)C)C(=O)N[C@@H](C)C(=O)N[C@@H](CO)C(=O)N[C@@H](CCCCN)C(=O)N[C@@H](CC(C)C)C(=O)N[C@@H](CC(C)C)C(=O)O)[C@@H](C)O [VIVKAIATLASKLL]

- MIC [3]: 72.8 µM (≈ 100 µg/mL)
- MIC [4]: 18.2 µM (≈ 25 µg/mL)
- MIC [19]: ≥ 46.6 µM
- MIC [20]: ≥ 34.9 µM
- MIC (Aspergillus fumigatus): 5 µM (≈ 6.87 µg/mL)
- MIC [21]: ≥ 101 µM
SMILES: CC(C)[C@H](NC(=O)[C@H](CO)NC(=O)[C@H](CCCN=C(N)N)NC(=O)[C@H](CCCN=C(N)N)NC(=O)[C@H](CCCN=C(N)N)NC(=O)[C@H](CCCN=C(N)N)NC(=O)CN)C(=O)N[C@@H](CCC(N)=O)C(=O)N[C@@H](Cc1c[nH]c2ccccc12)C(=O)N[C@@H](CS)C(=O)N[C@@H](C)C(=O)O [GRRRRSVQWCA]

- MIC [22]: ≥ 163 µM
- MIC [23]: ≥ 163 µM
- MIC [24]: ≥ 163 µM
- MIC [25]: > 163 µM
SMILES: CC(C)C[C@H](NC(=O)[C@H](CS)NC(=O)[C@H](Cc1cnc[nH]1)NC(=O)[C@H](C)NC(=O)[C@H](C)NC(=O)[C@H](CS)NC(=O)[C@H](C)NC(=O)[C@H](C)NC(=O)[C@@H](N)CCCCN)C(=O)N[C@@H](Cc1c[nH]c2ccccc12)C(=O)N[C@@H](CCCN=C(N)N)C(N)=O [KAACAAHCLWR]

- MIC [1]: ≥ 200 µM
- MIC [2]: 100 µM (≈ 256 µg/mL)
- MIC [3]: > 200 µM
- MIC [4]: 50 µM (≈ 128 µg/mL)
- MIC [5]: ≥ 200 µM
- MIC [6]: ≥ 100 µM
- MIC [7]: ≥ 50 µM
- MIC [8]: ≥ 200 µM
- MIC [9]: ≥ 200 µM
SMILES: CC[C@H](C)[C@H](NC(=O)[C@H](CC(=O)O)NC(=O)[C@@H](NC(=O)[C@@H](NC(=O)CN)C(C)C)C(C)C)C(=O)N[C@@H](CC(C)C)C(=O)N[C@@H](CCCCN)C(=O)NCC(=O)N[C@@H](C)C(=O)N[C@@H](C)C(=O)N[C@@H](CCCCN)C(=O)N[C@@H](CC(=O)O)C(=O)N[C@@H](CC(C)C)C(=O)N[C@@H](C)C(=O)NCC(=O)N[C@@H](Cc1c[nH]cn1)C(=O)N[C@@H](CC(C)C)C(=O)N[C@@H](C)C(=O)N[C@H](C(=O)N[C@@H](CCCCN)C(=O)N[C@H](C(=O)N[C@@H](CCSC)C(=O)N[C@@H](CC(N)=O)C(=O)N[C@@H](CCCCN)C(=O)N[C@@H](CC(C)C)C(N)=O)C(C)C)[C@@H](C)O [GVVDILKGAAKDLAGHLATKVMNKL]
